Data reported in US20250326785A1, “SODIUM SALT AND ETHANOLAMINE SALT OF 23-HYDROXYTORMENTIC ACID” (HUYABIO International, LLC, priority 2024, published 2025).

Experiments:
[1] = Stability study at 25° C./60% RH, 40° C./75% RH and 60° C. (XRPD, HPLC purity, impurity tracking)
Text: Stability of HBI-3808 Sodium Salt Pattern 2 was studied over 13 weeks.
Table 2F presents impurity tracking results from a 13-week stability study of HBI-3808 sodium salt of Pattern 2. […]

[2] = Dynamic vapor sorption (DVS) analysis; format: physicochemical
Method: GC analysis indicated residual solvent contents of 2847 ppm methanol; and 27 ppm TBME. […] No residual methanol or TBME was detected due to signal over-lap. […] TG-DSC analysis indicated two weight losses. The first weight loss of 2.3 wt. % was observed between 20-170° C. […] In the DSC thermogram, three endothermic events were observed (FIG. 17I). […] FT-IR (FIG. 17J) and Raman spectra (FIG. 17K) were recorded for reference. […] XRPD pattern of the ethanolamine salt was retained post-DVS (FIG. 17N). […] However, at the end of the experiment the solids on the microscope slide had discolored (FIG. 17O).

[3] = Salt disproportionation study (slurry in water, XRPD of solids, pH of mother liquor); format: physicochemical; conditions: for XRPD of recovered solids: ca. 24 h at 25° C.
Method: The pH of the filtered mother liquor was 9.77.
Salt disproportionation studies of ethanolamine salt. […] The pH of the filtered mother liquor was 8.65.
Method: 40 mg of sodium salt of HBI-3808 having a XRPD of Pattern 2, was weighed into a 2 mL push cap vial and a stirrer bar added. 0.2 mL of water was added to the vial and the experiment was stirred for ca. 24 h at 25° C. After 24 h the slurry was filtered by centrifuge filtration and the recovered solids were analyzed by XRPD. The pH of the filtered mother liquor was measured.

[4] = Hydration study in methanol/water aw 0.1, 0.5 and 0.9; format: physicochemical
Text: Hydration studies of ethanolamine salt.

[5] = Varying humidity (VH)-XRPD; format: physicochemical; conditions: 30° C.
Method: During the sorption phase, sodium salt Pattern 2 was observed between 40-60% RH. […] A mixture of sodium salt Pattern 2 and 5 was also observed at 80% RH. […] During the second desorption, from 90% RH to 40% RH, sodium salt Pattern 5 was maintained.
VH-XRPD analysis was carried out between 40-0% RH (FIG. 5L).

[6] = impurity tracking, 40° C./75% RH, 1 week
[7] = impurity tracking, 40° C./75% RH, 2 weeks
[8] = impurity tracking, 40° C./75% RH, 4 weeks
[9] = impurity tracking, 40° C./75% RH, 8 weeks
[10] = impurity tracking, 40° C./75% RH, 13 weeks
[11] = impurity tracking, 60° C., 1 week
[12] = impurity tracking, 60° C., 2 weeks
[13] = impurity tracking, 60° C., 4 weeks
[14] = impurity tracking, 60° C., 8 weeks
[15] = impurity tracking, 60° C., 13 weeks

## CC1CCC2(C(=O)[O-])CCC3(C)C(=CCC4C5(C)CC(O)C(O)C(C)(CO)C5CCC43C)C2C1(C)O.[Na+] (stereo not shown) [HBI-3808 sodium salt of Pattern 2, sodium salt of 23-hydroxytormentic acid]
[1]; [6]
  RRT 1.000 (HBI-3808): 97.28 % area
  RRT 1.025 (Isomer of HBI-3808): 2.48 % area
  Total Impurities: 2.72 % area
[1]; [7]
  RRT 0.970: 0.12 % area
  RRT 1.000 (HBI-3808): 97.26 % area
  RRT 1.025 (Isomer of HBI-3808): 2.40 % area
  RRT 1.935: 0.22 % area
  Total Impurities: 2.74 % area
[1]; [8]
  RRT 0.970: 0.11 % area
  RRT 1.000 (HBI-3808): 97.5 % area
  RRT 1.025 (Isomer of HBI-3808): 2.41 % area
  Total Impurities: 2.52 % area
[1]; [9]
  RRT 0.970: 0.21 % area
  RRT 1.000 (HBI-3808): 96.88 % area
  RRT 1.025 (Isomer of HBI-3808): 2.51 % area
  RRT 1.767: 0.40 % area
  Total Impurities: 3.12 % area
[1]; [10]
  RRT 1.000 (HBI-3808): 97.41 % area
  RRT 1.025 (Isomer of HBI-3808): 2.40 % area
  RRT 1.935: 0.20 % area
  Total Impurities: 2.59 % area
[1]; [11]
  RRT 0.801: 0.12 % area
  RRT 1.000 (HBI-3808): 97.46 % area
  RRT 1.025 (Isomer of HBI-3808): 2.43 % area
  Total Impurities: 2.54 % area
[1]; [12]
  RRT 0.970: 0.12 % area
  RRT 1.000 (HBI-3808): 97.27 % area
  RRT 1.025 (Isomer of HBI-3808): 2.41 % area
  RRT 1.935: 0.20 % area
  Total Impurities: 2.73 % area
[1]; [13]
  RRT 0.970: 0.11 % area
  RRT 1.000 (HBI-3808): 97.49 % area
  RRT 1.025 (Isomer of HBI-3808): 2.40 % area
  Total Impurities: 2.51 % area
[1]; [14]
  RRT 0.970: 0.12 % area
  RRT 1.000 (HBI-3808): 97.04 % area
  RRT 1.025 (Isomer of HBI-3808): 2.49 % area
  RRT 1.767: 0.35 % area
  Total Impurities: 2.96 % area
[1]; [15]
  RRT 1.000 (HBI-3808): 97.41 % area
  RRT 1.025 (Isomer of HBI-3808): 2.41 % area
  RRT 1.935: 0.18 % area
  Total Impurities: 2.59 % area
[1]; impurity tracking, T = 0
  RRT 1.000 (HBI-3808): 97.82 % area
  RRT 1.025 (Isomer of HBI-3808): 2.18 % area
  Total Impurities: 2.18 % area
[1]; input material of the stability study (baseline)
  input purity by HPLC: 97.2 % area
[2]
  XRPD of recovered material post-DVS: consistent with sodium salt of Pattern 5
[2]; Pattern 2: second DVS cycle
  reversibility of mass uptake/loss: reversible
[2]; at 80% RH/25° C. (Pattern 2: second DVS cycle)
  water (mass) uptake: 0.8 wt. %
[2]; first sorption cycle between 60-80% RH
  irreversible mass loss: about 2.4 wt. %
[3]
  pH of the filtered mother liquor: 9.77
  XRPD of recovered solids: consistent with HBI-3808 sodium salt of Pattern 5
[3]; listed as sodium salt of HBI-3808 having a XRPD of Pattern 2
  XRPD of recovered solids: consistent with sodium salt of HBI-3808 having a XRPD of pattern 5
[4]
  XRPD of solids recovered at the end of the experiment: consistent with sodium salt Pattern 2
[5]; 40-0% RH
  XRPD pattern during desorption: no change in XRPD Pattern
[5]; at 70% RH
  XRPD pattern during sorption: composite XRPD diffractogram of sodium salt Pattern 2 and 5
[5]; at 90% RH
  XRPD pattern during sorption: only sodium salt Pattern 5 was observed
